Where two headings read alike, the source gives them in different places.
Assays:
Nav 1.7 = Nav 1.7 (Homo sapiens (Human), UniProt Q15858); assay: in-vitro Nav 1.7 PX data; assay type: cell-based
Nav 1.5 = Nav 1.5 (Homo sapiens (Human), UniProt Q14524); assay: in-vitro Nav 1.5 PX data; conditions: read-out: Nav 1.5 PX IC50
Chain of Nav 1.5 (Q14524 whole entry): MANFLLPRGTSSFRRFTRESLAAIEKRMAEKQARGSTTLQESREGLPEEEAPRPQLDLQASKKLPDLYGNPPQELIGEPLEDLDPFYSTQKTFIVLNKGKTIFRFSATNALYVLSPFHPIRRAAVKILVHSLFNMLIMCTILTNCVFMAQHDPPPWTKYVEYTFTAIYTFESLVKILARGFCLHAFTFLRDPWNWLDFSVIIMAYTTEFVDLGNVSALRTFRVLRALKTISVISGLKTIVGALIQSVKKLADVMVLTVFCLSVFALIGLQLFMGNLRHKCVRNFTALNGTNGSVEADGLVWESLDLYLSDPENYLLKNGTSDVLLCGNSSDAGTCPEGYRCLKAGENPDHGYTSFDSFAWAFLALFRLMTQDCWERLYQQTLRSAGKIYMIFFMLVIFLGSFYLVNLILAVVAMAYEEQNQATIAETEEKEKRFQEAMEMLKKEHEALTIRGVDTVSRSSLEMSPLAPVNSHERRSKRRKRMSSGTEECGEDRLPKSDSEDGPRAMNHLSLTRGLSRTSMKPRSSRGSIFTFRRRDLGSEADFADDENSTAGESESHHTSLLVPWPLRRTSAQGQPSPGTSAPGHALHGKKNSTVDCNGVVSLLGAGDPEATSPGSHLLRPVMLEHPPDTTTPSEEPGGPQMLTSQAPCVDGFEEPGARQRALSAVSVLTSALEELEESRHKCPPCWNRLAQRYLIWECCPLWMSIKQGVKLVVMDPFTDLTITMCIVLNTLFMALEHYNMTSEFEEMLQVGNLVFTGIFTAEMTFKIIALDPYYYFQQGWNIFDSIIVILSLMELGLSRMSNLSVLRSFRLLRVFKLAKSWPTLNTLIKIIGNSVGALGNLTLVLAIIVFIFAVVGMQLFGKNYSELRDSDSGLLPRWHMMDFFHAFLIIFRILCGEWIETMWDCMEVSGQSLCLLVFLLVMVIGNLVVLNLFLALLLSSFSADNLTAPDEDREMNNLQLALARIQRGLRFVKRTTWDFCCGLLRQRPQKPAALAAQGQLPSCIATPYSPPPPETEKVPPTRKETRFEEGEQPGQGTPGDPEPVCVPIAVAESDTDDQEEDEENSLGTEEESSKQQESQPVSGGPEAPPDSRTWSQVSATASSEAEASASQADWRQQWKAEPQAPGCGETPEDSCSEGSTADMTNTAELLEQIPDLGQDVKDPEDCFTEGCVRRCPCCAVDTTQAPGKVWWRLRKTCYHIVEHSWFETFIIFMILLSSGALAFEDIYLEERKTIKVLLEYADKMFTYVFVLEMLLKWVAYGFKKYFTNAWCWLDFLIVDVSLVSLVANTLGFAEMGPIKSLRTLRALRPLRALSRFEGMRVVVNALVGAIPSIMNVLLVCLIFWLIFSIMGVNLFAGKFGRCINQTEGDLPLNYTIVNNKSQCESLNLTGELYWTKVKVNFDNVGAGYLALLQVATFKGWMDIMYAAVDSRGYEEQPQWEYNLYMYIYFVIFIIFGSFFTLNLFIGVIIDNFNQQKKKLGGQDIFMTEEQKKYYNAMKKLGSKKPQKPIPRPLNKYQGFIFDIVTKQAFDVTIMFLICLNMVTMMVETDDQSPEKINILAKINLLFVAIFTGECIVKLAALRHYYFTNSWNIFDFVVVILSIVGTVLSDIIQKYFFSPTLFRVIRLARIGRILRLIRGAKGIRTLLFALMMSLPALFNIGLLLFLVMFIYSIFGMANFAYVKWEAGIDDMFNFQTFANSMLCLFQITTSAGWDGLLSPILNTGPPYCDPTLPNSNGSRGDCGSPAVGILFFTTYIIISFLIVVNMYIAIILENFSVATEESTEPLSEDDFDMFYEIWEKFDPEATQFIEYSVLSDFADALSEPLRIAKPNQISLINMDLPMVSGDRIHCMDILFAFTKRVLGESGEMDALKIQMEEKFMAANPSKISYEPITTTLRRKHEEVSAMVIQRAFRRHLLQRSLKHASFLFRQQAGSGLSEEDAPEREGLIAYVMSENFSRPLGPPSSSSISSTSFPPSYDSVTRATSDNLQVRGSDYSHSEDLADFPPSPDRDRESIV

Chain of Nav 1.7 (Q15858 whole entry): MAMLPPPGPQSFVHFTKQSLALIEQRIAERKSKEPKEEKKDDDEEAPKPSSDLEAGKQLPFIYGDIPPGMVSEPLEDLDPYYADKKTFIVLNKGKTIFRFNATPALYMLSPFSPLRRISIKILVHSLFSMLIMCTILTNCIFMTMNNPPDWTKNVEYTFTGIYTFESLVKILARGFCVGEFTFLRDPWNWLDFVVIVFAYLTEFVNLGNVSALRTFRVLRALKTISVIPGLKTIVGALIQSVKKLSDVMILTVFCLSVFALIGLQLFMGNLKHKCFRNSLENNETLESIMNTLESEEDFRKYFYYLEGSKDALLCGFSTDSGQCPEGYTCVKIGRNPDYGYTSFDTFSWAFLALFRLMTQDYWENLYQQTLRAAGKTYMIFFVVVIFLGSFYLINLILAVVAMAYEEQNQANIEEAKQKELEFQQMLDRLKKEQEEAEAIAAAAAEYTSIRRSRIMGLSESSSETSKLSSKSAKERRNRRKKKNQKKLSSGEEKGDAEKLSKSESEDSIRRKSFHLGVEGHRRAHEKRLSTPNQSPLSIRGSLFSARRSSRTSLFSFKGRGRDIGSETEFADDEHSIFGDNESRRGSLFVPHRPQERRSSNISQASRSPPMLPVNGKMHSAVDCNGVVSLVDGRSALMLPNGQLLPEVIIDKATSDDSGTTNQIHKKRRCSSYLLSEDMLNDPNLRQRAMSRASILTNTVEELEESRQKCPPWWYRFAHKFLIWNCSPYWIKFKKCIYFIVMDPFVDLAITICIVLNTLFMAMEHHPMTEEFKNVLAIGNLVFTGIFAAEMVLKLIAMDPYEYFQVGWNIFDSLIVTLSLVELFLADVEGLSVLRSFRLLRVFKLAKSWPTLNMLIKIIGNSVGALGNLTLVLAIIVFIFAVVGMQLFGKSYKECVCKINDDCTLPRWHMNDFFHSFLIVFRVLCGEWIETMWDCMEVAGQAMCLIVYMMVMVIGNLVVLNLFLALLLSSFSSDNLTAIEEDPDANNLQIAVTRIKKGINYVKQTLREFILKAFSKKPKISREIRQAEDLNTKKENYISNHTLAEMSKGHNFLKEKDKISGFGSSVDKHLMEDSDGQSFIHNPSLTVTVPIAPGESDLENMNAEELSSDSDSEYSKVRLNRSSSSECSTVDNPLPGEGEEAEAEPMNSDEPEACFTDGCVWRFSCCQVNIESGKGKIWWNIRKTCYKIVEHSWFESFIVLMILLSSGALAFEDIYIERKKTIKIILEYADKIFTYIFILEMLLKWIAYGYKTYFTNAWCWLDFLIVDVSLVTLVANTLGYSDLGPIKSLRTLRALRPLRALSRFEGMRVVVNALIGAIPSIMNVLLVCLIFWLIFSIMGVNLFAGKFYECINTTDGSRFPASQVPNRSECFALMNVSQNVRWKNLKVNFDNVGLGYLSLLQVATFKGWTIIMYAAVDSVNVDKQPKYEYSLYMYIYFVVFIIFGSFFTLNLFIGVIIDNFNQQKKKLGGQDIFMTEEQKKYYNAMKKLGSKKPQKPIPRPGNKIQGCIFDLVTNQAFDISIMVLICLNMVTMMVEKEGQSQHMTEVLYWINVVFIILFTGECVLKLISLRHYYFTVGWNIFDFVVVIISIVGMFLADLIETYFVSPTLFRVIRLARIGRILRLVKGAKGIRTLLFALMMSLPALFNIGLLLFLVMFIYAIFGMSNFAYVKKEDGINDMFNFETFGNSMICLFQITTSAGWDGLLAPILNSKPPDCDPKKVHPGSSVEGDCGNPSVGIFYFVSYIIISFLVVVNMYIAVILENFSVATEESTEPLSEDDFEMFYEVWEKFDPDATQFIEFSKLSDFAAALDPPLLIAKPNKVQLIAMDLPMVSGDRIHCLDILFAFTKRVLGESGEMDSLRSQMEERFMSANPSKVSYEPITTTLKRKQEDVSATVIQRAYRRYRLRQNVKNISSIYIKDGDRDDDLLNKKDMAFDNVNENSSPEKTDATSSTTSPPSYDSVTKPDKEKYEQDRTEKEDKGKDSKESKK

IC50 (Nav 1.7; PatchXpress (PX), in vitro)	SMILES	IC50 (Nav 1.5; PatchXpress (PX), in vitro)	further results
	COc1cc(-c2cccc(F)c2)c(Cl)cc1-c1nncc2cc(S(=O)(=O)Nc3ccon3)ccc12 [Example 10, 1-(2-CHLORO-3′-FLUORO-5-METHOXY-[1,1′-BIPHENYL]-4-YL)-N-(ISOXAZOL-3-YL)PHTHALAZINE-6-SULFONAMIDE]		IC50 (Nav 1.7; in-vitro PX data): 84.1 nM; IC50 (Nav 1.5; in-vitro PX data): > 10000 nM
	COc1cc(-c2cccc(F)c2)c(Cl)cc1-c1n[nH]c(=O)c2cc(S(=O)(=O)Nc3nncs3)ccc12 [Example 14, 1-(2-CHLORO-3′-FLUORO-5-METHOXY-[1,1′-BIPHENYL]-4-YL)-4-OXO-N-(1,3,4-THIADIAZOL-2-YL)-3,4-DIHYDROPHTHALAZINE-6-SULFONAMIDE]		IC50 (Nav 1.7): 131 nM; IC50 (Nav 1.5; in-vitro PX (PatchXpress) data): > 10000 nM
	COc1cc(-c2cccc(F)c2)c(Cl)cc1-c1ncc(O)c2cc(S(=O)(=O)Nc3ccon3)ccc12 [Example 17, 1-(2-CHLORO-3′-FLUORO-5-METHOXY-[1,1′-BIPHENYL]-4-YL)-4-HYDROXY-N-(ISOXAZOL-3-YL)ISOQUINOLINE-6-SULFONAMIDE]		IC50 (Nav 1.7; in-vitro PX): 85.1 nM; IC50 (Nav 1.5; in-vitro PX): > 10000 nM
	COc1cc(-c2cc(F)cnc2OC)c(C#N)cc1-c1ncnc2cc(S(=O)(=O)Nc3nncs3)ccc12 [Example 20, 4-(5-CYANO-4-(5-FLUORO-2-METHOXYPYRIDIN-3-YL)-2-METHOXYPHENYL)-N-(1,3,4-THIADIAZOL-2-YL)QUINAZOLINE-7-SULFONAMIDE]		IC50 (Nav 1.7): 182 nM; IC50 (Nav 1.5; in-vitro PX (PatchXpress) data): > 10000 nM
	COc1cc(-c2cccc(F)c2)c(Cl)cc1-c1nn(C)c(=O)c2cc(S(=O)(=O)Nc3ccon3)ccc12 [Example 21, 1-(2-CHLORO-3′-FLUORO-5-METHOXY-[1,1′-BIPHENYL]-4-YL)-N-(ISOXAZOL-3-YL)-3-METHYL-4-OXO-3,4-DIHYDROPHTHALAZINE-6-SULFONAMIDE]		IC50 (Nav 1.7): 42.4 nM; IC50 (Nav 1.5; in-vitro PX): > 10000 nM
	COc1cc(-c2cccc(C(F)(F)F)c2)c(F)cc1-c1nn(C)c(=O)c2cc(S(=O)(=O)Nc3ccon3)ccc12 [Example 25, 1-(2-FLUORO-5-METHOXY-3′-(TRIFLUOROMETHYL)-[1,1′-BIPHENYL]-4-YL)-N-(ISOXAZOL-3-YL)-3-METHYL-4-OXO-3,4-DIHYDROPHTHALAZINE-6-SULFONAMIDE]		IC50 (Nav 1.7): 94.1 nM; IC50 (Nav 1.5; in-vitro PX): > 10000 nM
	COc1cc(-c2cccc(F)c2)c(Cl)cc1-c1ncnc2cc(S(=O)(=O)Nc3ncon3)ccc12 [Example 26, 4-(2-CHLORO-3′-FLUORO-5-METHOXY-[1,1′-BIPHENYL]-4-YL)-N-(1,2,4-OXADIAZOL-3-YL)QUINAZOLINE-7-SULFONAMIDE]		IC50 (Nav 1.7; in-vitro PX): 85 nM; IC50 (Nav 1.5; in-vitro PX): > 10000 nM
	COc1cc(-c2cccc(F)c2)c(Cl)cc1-c1ncc(C#N)c2cc(S(=O)(=O)Nc3ccon3)ccc12 [Example 27, 1-(2-CHLORO-3′-FLUORO-5-METHOXY-[1,1′-BIPHENYL]-4-YL)-4-CYANO-N-(ISOXAZOL-3-YL)ISOQUINOLINE-6-SULFONAMIDE]		IC50 (Nav 1.7): 282 nM; IC50 (Nav 1.5; in-vitro PX): > 10000 nM
	COc1cc(-c2cc(F)cc(F)c2)c(C#N)cc1-c1nccc2cc(S(=O)(=O)Nc3ccncn3)ccc12 [Example 28, 1-(2-CYANO-3′,5′-DIFLUORO-5-METHOXY-[1,1′-BIPHENYL]-4-YL)-N-(PYRIMIDIN-4-YL)ISOQUINOLINE-6-SULFONAMIDE]		IC50 (Nav 1.7): 144 nM; IC50 (Nav 1.5; in-vitro Nav 1.5 PX data): > 10000 nM
	COc1cc(-c2cc(F)cnc2OC)ccc1-c1nccc2cc(S(=O)(=O)Nc3nncs3)ccc12 [Example 30, 1-(4-(5-FLUORO-2-METHOXYPYRIDIN-3-YL)-2-METHOXYPHENYL)-N-(1,3,4-THIADIAZOL-2-YL)ISOQUINOLINE-6-SULFONAMIDE]		IC50 (Nav 1.7; in-vitro Nav 1.7 PX data): 80.1 nM; IC50 (Nav 1.5; in-vitro Nav 1.5 PX data): > 30000 nM
	COc1cc(-c2cc(F)cnc2OC)ccc1-c1nccc2cc(S(=O)(=O)Nc3ccon3)ccc12 [Example 31, 1-(4-(5-FLUORO-2-METHOXYPYRIDIN-3-YL)-2-METHOXYPHENYL)-N-(ISOXAZOL-3-YL)ISOQUINOLINE-6-SULFONAMIDE]		IC50 (Nav 1.7; in-vitro PX (PatchXpress) data): 169 nM; IC50 (Nav 1.5; in-vitro PX (PatchXpress) data): > 10000 nM
	Cc1ccc(Oc2ccccc2)cc1-c1nccc2cc(S(=O)(=O)Nc3ccncn3)ccc12 [Example 39, 1-(2-METHYL-5-PHENOXYPHENYL)-N-(PYRIMIDIN-4-YL)ISOQUINOLINE-6-SULFONAMIDE]		IC50 (Nav 1.7; in-vitro Nav 1.7 PX data): 488 nM; IC50 (Nav 1.5; in-vitro Nav 1.5 PX data): > 10000 nM
45.6 nM	COc1cc(-c2cccc(F)c2)c(Cl)cc1-c1nccc2cc(S(=O)(=O)Nc3ccon3)c(F)cc12 [Example 43, 1-(2-CHLORO-3′-FLUORO-5-METHOXY-[1,1′-BIPHENYL]-4-YL)-7-FLUORO-N-(ISOXAZOL-3-YL)ISOQUINOLINE-6-SULFONAMIDE]	> 10000 nM	
	COc1cc(-c2cccc(F)c2)ccc1-c1nccc2cc(S(=O)(=O)Nc3ncns3)c(F)cc12 [Example 44, 7-FLUORO-1-(3′-FLUORO-3-METHOXY-[1,1′-BIPHENYL]-4-YL)-N-(1,2,4-THIADIAZOL-5-YL)ISOQUINOLINE-6-SULFONAMIDE]	> 10000 nM	IC50 (Nav 1.7): 48.8 nM
311 nM	COc1cc(-c2ccccc2)ccc1-c1nccc2cc(S(=O)(=O)Nc3ccon3)ccc12 [Example 49, N-(ISOXAZOL-3-YL)-1-(3-METHOXY-[1,1′-BIPHENYL]-4-YL)ISOQUINOLINE-6-SULFONAMIDE]	> 10000 nM	
174 nM	COc1cc(-c2ccccc2)ccc1-c1nccc2cc(S(=O)(=O)Nc3nncs3)ccc12 [Example 50]	> 10000 nM	

IC50 (Nav 1.7; PatchXpress (PX), in vitro)	SMILES	IC50 (Nav 1.5; PatchXpress (PX), in vitro)	further results
349 nM	COc1nc(OCC2CCCCC2)ccc1-c1nccc2cc(S(=O)(=O)Nc3ccncn3)ccc12 [Example 66, 1-(6-(cyclohexylmethoxy)-2-methoxy-3-pyridinyl)-N-4-pyrimidinyl-6-isoquinolinesulfonamide]	> 10000 nM	
459 nM	COc1nc(OCC2CCC(F)(F)CC2)ccc1-c1nccc2cc(S(=O)(=O)Nc3ccncn3)ccc12 [Example 69, 1-(6-((4,4-difluorocyclohexyl)methoxy)-2-methoxy-3-pyridinyl)-N-4-pyrimidinyl-6-isoquinolinesulfonamide]	> 30000 nM	
436 nM	COc1nc(NC2CCCCC2)ccc1-c1nccc2cc(S(=O)(=O)Nc3ccncn3)ccc12 [Example 73, 1-(6-(cyclohexylamino)-2-methoxy-3-pyridinyl)-N-4-pyrimidinyl-6-isoquinolinesulfonamide]	> 10000 nM	
58.5 nM	COc1cc(-c2ccc(Cl)c(F)c2)c(C#N)cc1-c1nccc2cc(S(=O)(=O)Nc3ccon3)ccc12 [Example 76, 1-(4′-chloro-2-cyano-3′-fluoro-5-methoxy-4-biphenylyl)-N-3-isoxazolyl-6-isoquinolinesulfonamide]	> 10000 nM	
72.5 nM	COc1cc(-c2cc(C)cc(F)c2)c(C#N)cc1-c1nccc2cc(S(=O)(=O)Nc3ccon3)ccc12 [Example 77, 1-(2-cyano-3′-fluoro-5-methoxy-5′-methyl-4-biphenylyl)-N-3-isoxazolyl-6-isoquinolinesulfonamide]	> 10000 nM	
33 nM	COc1cc(-c2ccc(C)c(Cl)c2)c(C#N)cc1-c1nccc2cc(S(=O)(=O)Nc3ccon3)ccc12 [Example 78, 1-(3′-chloro-2-cyano-5-methoxy-4′-methyl-4-biphenylyl)-N-3-isoxazolyl-6-isoquinolinesulfonamide]	> 10000 nM	
88 nM	COc1cc(-c2ccccc2C)c(C#N)cc1-c1nccc2cc(S(=O)(=O)Nc3ccon3)ccc12 [Example 79, 1-(2-cyano-5-methoxy-2′-methyl-4-biphenylyl)-N-3-isoxazolyl-6-isoquinolinesulfonamide]	> 10000 nM	
28.2 nM	COc1cc(-c2ccc(F)c(F)c2)c(C#N)cc1-c1nccc2cc(S(=O)(=O)Nc3ccon3)ccc12 [Example 80, 1-(2-cyano-3′,4′-difluoro-5-methoxy-4-biphenylyl)-N-3-isoxazolyl-6-isoquinolinesulfonamide]	> 10000 nM	
26.1 nM	COc1cc(-c2ccc(Cl)c(C)c2)c(C#N)cc1-c1nccc2cc(S(=O)(=O)Nc3ccon3)ccc12 [Example 82, 1-(4′-chloro-2-cyano-5-methoxy-3′-methyl-4-biphenylyl)-N-3-isoxazolyl-6-isoquinolinesulfonamide]	> 10000 nM	
14.7 nM	COc1cc(-c2ccc(F)c(Cl)c2)c(C#N)cc1-c1nccc2cc(S(=O)(=O)Nc3ccon3)ccc12 [Example 84, 1-(3′-chloro-2-cyano-4′-fluoro-5-methoxy-4-biphenylyl)-N-3-isoxazolyl-6-isoquinolinesulfonamide]	> 10000 nM	
28.8 nM	COc1cc(-c2ccc(F)c(C)c2)c(C#N)cc1-c1nccc2cc(S(=O)(=O)Nc3ccon3)ccc12 [Example 85, 1-(2-cyano-4′-fluoro-5-methoxy-3′-methyl-4-biphenylyl)-N-3-isoxazolyl-6-isoquinolinesulfonamide]	> 10000 nM	
24.4 nM	COc1cc(-c2cc(F)cc(Cl)c2)c(C#N)cc1-c1nccc2cc(S(=O)(=O)Nc3ccon3)ccc12 [Example 86, 1-(3′-chloro-2-cyano-5′-fluoro-5-methoxy-4-biphenylyl)-N-3-isoxazolyl-6-isoquinolinesulfonamide]	> 10000 nM	
	COc1cc(-c2ccc(F)cc2)c(C#N)cc1-c1nccc2cc(S(=O)(=O)Nc3ccon3)ccc12 [Example 106, 1-(2-cyano-4′-fluoro-5-methoxy-4-biphenylyl)-N-3-isoxazolyl-6-isoquinolinesulfonamide]		IC50 (Nav 1.7; in-vitro PX data): 62.5 nM; IC50 (Nav 1.5; in-vitro PX data): > 10000 nM
	COc1cc(-c2cc(F)cc(F)c2)c(C#N)cc1-c1nccc2cc(S(=O)(=O)Nc3ncccn3)ccc12 [Example 107, 1-(2-cyano-3′,5′-difluoro-5-methoxy-4-biphenylyl)-N-2-pyrimidinyl-6-isoquinolinesulfonamide]		IC50 (Nav 1.7; in-vitro PX data): 255 nM; IC50 (Nav 1.5; in-vitro PX data): > 10000 nM
	COc1cc(Cl)c(-c2cccc(F)c2)cc1-c1nccc2cc(S(=O)(=O)Nc3nncs3)ccc12 [Example 110, 1-(6-chloro-3′-fluoro-4-methoxy-3-biphenylyl)-N-1,3,4-thiadiazol-2-yl-6-isoquinolinesulfonamide]		IC50 (Nav 1.7; in-vitro PX data): 109 nM; IC50 (Nav 1.5; in-vitro PX data): > 10000 nM

Reference: patent publication US9776995B2, “Bicyclic sulfonamide compounds as sodium channel inhibitors” (AMGEN INC., priority 2013, dated 2017)
